Where two headings read alike, the source gives them in different places.
Tests used:
[1] = background; cited from earlier work
in vivo [2] = test: in vivo
[3] = in vivo
in vivo [4] = details: iv, 10 mg/kg

## N[C@@H](Cc1ccc(N(CCCl)CCCl)cc1)C(=O)O [melphalan]
[1]
  entry into the brain: only minimally enter the brain
In vivo [2]
  Kp: 0.1

## CC(C)(C)OC(=O)CCCc1ccc(N(CCCl)CCCl)cc1 [tertiary butyl chlorambucil]
In vivo [2]
  Kp: 0.7
[3]
  increase of brain/plasma concentration ratio of active drug versus chlorambucil: 4100%
In vivo [4]
  Kp: 0.7

## O=C(O)CCCc1ccc(N(CCCl)CCCl)cc1 [chlorambucil]
In vivo [2]
  Kp: 0.02
In vivo [4]
  Kp: 0.017
